From patent US8895733B2 (Novartis AG, priority 2010, dated 2014)

Target: T1, Nav 1.7 (Homo sapiens, UniProt Q15858)
T1 construct: expressed in transfected cells
Experiment: Whole-cell voltage clamp electrophysiology, manual patch clamp (marker b in Table of Examples)
Type: cell-based
Settings: marker b = Manual patch clamp data; read-out: Nav 1.7 activity
Excerpt: a.IonWork Quattro data, b=Manual patch clamp data, c=Automated patch clamp data M=Method
Whole-Cell Voltage Clamp Electrophysiology Assay
Patch-clamp electrophysiology is considered the gold standard technique for investigation of ion channel function and pharmacology. Using this method, sodium channel currents can be measured in cells, which stably (or transiently) express the sodium channel subtype of interest. Application of compounds during such experiments provides a functional measure of the activity and potency of compounds affecting the ion channel of interest.
Electrophysiological studies can also be performed using the whole cell configuration of the standard manual patch clamp technique as described in the literature (e.g. Pflugers Arch., 1981, 391(2), 85-100). In this assay, cells that express the voltage-gated sodium channel protein of interest are exposed to the drugs by conventional microperfusion systems, or by a home-built perfusion system. A suitable voltage stimulus protocol is used to activate the voltage-gated sodium channels.
A suitable voltage stimulus protocol is used to activate voltage-gated sodium channel proteins of interest. A typical stimulus protocol may consist of sweeps of sequential voltage pulses starting from a holding potential (i.e. −65 mV), to a more positive and depolarising test pulse potential (i.e. −10 mV) and finally to a more negative and hyperpolarising potential (i.e. −100 mV). According to the biophysics of the voltage-gated ion channel of interest and interest in channel configuration the voltages and durations of the pulses as well as the overall frequency of sweeps applied might vary. Accordingly, a stimulus protocol was designed to assess compounds due to their potential to block NaV1.7 channels primarily in inactivated state. Selectivity over other voltage-gated sodium channel members was assessed by protocols that reflect the native function of the channels (i.e. heart rate or firing of neurons).
Electrophysiological studies can also be performed using the whole cell configuration of the standard manual patch clamp technique as described in the literature (e.g. Pflugers Arch., 1981, 391(2), 85-100). In this assay, cells that express the human voltage-gated sodium channel protein of interest are exposed to the drugs by conventional microperfusion systems, or by a home-built perfusion system. A suitable voltage stimulus protocol is used to activate the voltage-gated sodium channels. A suitable voltage stimulus protocol may consist of sequential voltage pulses from a holding potential, each first hyperpolarizing the cell, then depolarizing the channels for a brief period. A particularly suitable holding potential may be a voltage allowing a fraction of channels to remain in an inactivated state, like −60 mV. A suitable hyperpolarizing voltage and duration may be −120 mV for 100 ms, and depolarization voltage and duration may be −20 mV for 25 ms, and a suitable frequency of pulses may be 0.1 Hz, but may also have other parameters. Accordingly, a stimulus protocol was designed to assess compounds due to their potential to block NaV1.7 channels primarily in inactivated state. Selectivity over other voltage-gated sodium channel members was assessed by protocols that reflect the native function of the channels (i.e. heart rate or firing of neurons).

T1 sequence (Q15858 whole entry): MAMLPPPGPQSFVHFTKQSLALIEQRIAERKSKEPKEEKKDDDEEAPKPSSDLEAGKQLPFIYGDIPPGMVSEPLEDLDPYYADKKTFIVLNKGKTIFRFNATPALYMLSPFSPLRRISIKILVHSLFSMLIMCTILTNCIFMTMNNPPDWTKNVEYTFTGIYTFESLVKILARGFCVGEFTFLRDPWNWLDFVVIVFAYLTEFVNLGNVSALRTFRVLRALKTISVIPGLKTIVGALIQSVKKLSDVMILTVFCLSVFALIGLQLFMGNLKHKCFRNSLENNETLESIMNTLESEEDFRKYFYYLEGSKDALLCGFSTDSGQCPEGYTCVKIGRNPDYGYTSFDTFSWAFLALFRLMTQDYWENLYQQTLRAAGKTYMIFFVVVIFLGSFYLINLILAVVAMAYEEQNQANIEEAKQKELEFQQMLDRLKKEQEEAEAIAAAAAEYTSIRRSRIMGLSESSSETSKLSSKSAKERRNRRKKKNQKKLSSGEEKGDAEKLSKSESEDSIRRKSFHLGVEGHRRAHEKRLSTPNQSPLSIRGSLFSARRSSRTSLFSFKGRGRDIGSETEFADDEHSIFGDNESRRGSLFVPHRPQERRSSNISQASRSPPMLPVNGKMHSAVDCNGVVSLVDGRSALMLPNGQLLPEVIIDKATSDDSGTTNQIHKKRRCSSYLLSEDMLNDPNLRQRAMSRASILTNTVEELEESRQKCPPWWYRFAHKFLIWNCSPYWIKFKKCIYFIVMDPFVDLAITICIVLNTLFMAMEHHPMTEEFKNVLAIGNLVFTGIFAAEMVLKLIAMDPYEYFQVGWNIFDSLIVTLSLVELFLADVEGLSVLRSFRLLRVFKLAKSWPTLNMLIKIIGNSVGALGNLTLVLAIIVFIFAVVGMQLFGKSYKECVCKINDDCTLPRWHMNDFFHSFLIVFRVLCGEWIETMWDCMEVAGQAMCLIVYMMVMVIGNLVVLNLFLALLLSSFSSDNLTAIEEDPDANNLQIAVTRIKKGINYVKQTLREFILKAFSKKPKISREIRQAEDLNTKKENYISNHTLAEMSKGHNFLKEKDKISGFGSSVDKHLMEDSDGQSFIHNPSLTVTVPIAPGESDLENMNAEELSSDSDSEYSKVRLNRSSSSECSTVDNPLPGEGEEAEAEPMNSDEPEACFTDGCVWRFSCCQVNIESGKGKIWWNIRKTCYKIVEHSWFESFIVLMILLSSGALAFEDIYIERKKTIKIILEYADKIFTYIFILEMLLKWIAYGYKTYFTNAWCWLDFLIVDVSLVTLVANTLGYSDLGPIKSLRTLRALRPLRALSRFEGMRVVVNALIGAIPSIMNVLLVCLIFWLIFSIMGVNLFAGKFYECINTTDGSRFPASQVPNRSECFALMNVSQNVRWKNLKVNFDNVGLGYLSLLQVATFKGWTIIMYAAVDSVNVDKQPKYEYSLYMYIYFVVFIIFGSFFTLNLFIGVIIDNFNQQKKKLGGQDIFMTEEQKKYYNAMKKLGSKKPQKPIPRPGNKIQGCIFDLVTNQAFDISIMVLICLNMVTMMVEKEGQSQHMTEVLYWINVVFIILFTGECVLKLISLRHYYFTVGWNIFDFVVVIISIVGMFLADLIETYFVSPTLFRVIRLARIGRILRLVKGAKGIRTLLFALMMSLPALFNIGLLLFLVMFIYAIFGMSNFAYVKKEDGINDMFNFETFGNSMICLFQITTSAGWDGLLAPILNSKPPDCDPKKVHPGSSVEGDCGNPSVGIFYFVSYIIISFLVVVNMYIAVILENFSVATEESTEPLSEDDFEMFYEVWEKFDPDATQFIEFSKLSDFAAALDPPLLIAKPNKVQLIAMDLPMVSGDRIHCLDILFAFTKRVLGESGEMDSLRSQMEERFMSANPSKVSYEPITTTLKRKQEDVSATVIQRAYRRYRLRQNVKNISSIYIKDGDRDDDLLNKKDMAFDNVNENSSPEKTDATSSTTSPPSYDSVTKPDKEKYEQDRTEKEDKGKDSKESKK

IC50 [nM]	Compound
17	CN(c1nc(N)nc(-c2noc(-c3ccc(OCC(F)(F)F)nc3)n2)n1)c1cccc(F)c1F [Example 411, 2-N-(2,3-difluorophenyl)-2-N-methyl-6-{5-[6-(2,2,2-trifluoroethoxy)pyridin-3-yl]-1,2,4-oxadiazol-3-yl}-1,3,5-triazine-2,4-diamine]
701	CN(c1ccccc1)c1nc(N)nc(-c2noc(N3CCC(OCC(F)(F)F)CC3)n2)n1 [Example 335, 2-N-methyl-2-N-phenyl-6-{5-[4-(2,2,2-trifluoroethoxy)piperidin-1-yl]-1,2,4-oxadiazol-3-yl}-1,3,5-triazine-2,4-diamine]
337	Nc1nc(Nc2ccccc2)nc(-c2noc(-c3ncccc3F)n2)n1 [Example 346, 6-[5-(3-Fluoropyridin-2-yl)-1,2,4-oxadiazol-3-yl]-2-N-phenyl-1,3,5-triazine-2,4-diamine]

Same assay, conditions: marker b: Manual patch clamp data; read-out: Nav 1.7 activity

IC50 [nM]	Compound
2320	CN(c1ccccc1)c1nc(N)nc(-c2noc(-c3ccc(Cl)s3)n2)n1 [Example 12, N-Methyl-6-[5-(5-chloro-thiophen-2-yl)-[1,2,4]oxadiazol-3-yl]-N-phenyl-[1,3,5]triazine-2,4-diamine]
4630	CN(c1ccccc1)c1nc(N)nc(-c2noc(C3CCOC3)n2)n1 (stereo not shown) [Example 48]
165	CN(c1ccccc1)c1nc(N)nc(-c2noc(-c3ccc(Cl)cc3)n2)n1 [Example 36, 6-[5-(4-Chloro-phenyl)-[1,2,4]oxadiazol-3-yl]-N-methyl-N-phenyl-[1,3,5]triazine-2,4-diamine]
235	Nc1nc(Nc2cc(Cl)ccc2F)nc(-c2noc(-c3ccco3)n2)n1 [Example 108, N-(5-Chloro-2-fluoro-phenyl)-6-(5-furan-2-yl-[1,2,4]oxadiazol-3-yl)-[1,3,5]triazine-2,4-diamine]
235	CN(c1ccccc1)c1nc(N)nc(-c2noc(N3CCC(COCC(F)(F)F)CC3)n2)n1 [Example 167, 2-N-Methyl-2-N-phenyl-6-(5-{4-[(2,2,2-trifluoroethoxy)methyl]piperidin-1-yl}-1,2,4-oxadiazol-3-yl)-1,3,5-triazine-2,4-diamine]
198	CN(c1nc(N)nc(-c2noc(-c3ccco3)n2)n1)c1ccccc1F [Example 14, N-(2-Fluoro-phenyl)-6-(5-furan-2-yl-[1,2,4]oxadiazol-3-yl)-N-methyl-[1,3,5]triazine-2,4-diamine]
561	CN(c1ccccc1)c1nc(N)nc(-c2noc(-c3ccn[nH]3)n2)n1 [Example 61, N-Methyl-N-phenyl-6-[5-(2H-pyrazol-3-yl)-[1,2,4]oxadiazol-3-yl]-[1,3,5]triazine-2,4-diamine]
511	CN(c1ccccc1)c1nc(N)nc(-c2noc(N3CCCCC3)n2)n1 [Example 46, N-Methyl-N-phenyl-6-(5-piperidin-1-yl-[1,2,4]oxadiazol-3-yl)-[1,3,5]triazine-2,4-diamine]
118	Nc1nc(Nc2cccc(F)c2F)nc(-c2noc(-c3ccco3)n2)n1 [Example 113, N-(2,3-Difluoro-phenyl)-6-(5-furan-2-yl-[1,2,4]oxadiazol-3-yl)-[1,3,5]triazine-2,4-diamine]
87	Cc1cccc(Nc2nc(N)nc(-c3noc(-c4ccco4)n3)n2)c1F [Example 112, N-(2-Fluoro-3-methyl-phenyl)-6-(5-furan-2-yl-[1,2,4]oxadiazol-3-yl)-[1,3,5]triazine-2,4-diamine]
348	CN(c1ccccc1)c1nc(N)nc(-c2noc(-c3ccccc3)n2)n1 [Example 10, N-Methyl-N-phenyl-6-(5-phenyl-[1,2,4]oxadiazol-3-yl)-[1,3,5]triazine-2,4-diamine]
106	CN(c1ccccc1)c1nc(N)nc(-c2noc(-c3ccccc3Cl)n2)n1 [Example 23, 6-[5-(2-Chloro-phenyl)-[1,2,4]oxadiazol-3-yl]-N-methyl-N-phenyl-[1,3,5]triazine-2,4-diamine]
82	CN(c1nc(N)nc(-c2noc(-c3ccco3)n2)n1)c1cccc(Cl)c1F [Example 106, N-(3-Chloro-2-fluoro-phenyl)-6-(5-furan-2-yl-[1,2,4]oxadiazol-3-yl)-N-methyl-[1,3,5]triazine-2,4-diamine]
